From US6737383B1, “Herbicidal oxadiazolidines” (priority 1999, dated 2004)

Assays:
morningglory = test: Test B pre/postemergence morningglory; type: in vivo, Ipomoea hederacea
Procedure, shortened: (§1)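 Test chemicals in a non-phytotoxic solvent mixture with surfactant were sprayed preemergence onto planted seeds and postemergence onto plants 2 to 18 cm tall (1- to 4-leaf stage). After twelve to sixteen days in a greenhouse, injury was visually rated against untreated controls from 0 (no effect) to 10 (complete control).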

crabgrass = test: Test B pre/postemergence crabgrass; type: in vivo, Digitaria sanguinalis
Procedure, shortened: as §1

bedstraw = test: Test B pre/postemergence bedstraw; type: in vivo, Galium aparine
Procedure, shortened: as §1

wheat = test: Test B pre/postemergence wheat; type: in vivo, Triticum aestivum
Procedure, shortened: as §1

surinam grass = test: Test B pre/postemergence surinam grass; type: in vivo, Brachiaria decumbens
Procedure, shortened: as §1

rape = test: Test B pre/postemergence rape; type: in vivo, Brassica napus
Procedure, shortened: as §1

sugar beet = test: Test B pre/postemergence sugar beet; type: in vivo, Beta vulgaris
Procedure, shortened: as §1

blackgrass = test: Test B pre/postemergence blackgrass; type: in vivo, Alopecurus myosuroides
Procedure, shortened: as §1

pigweed = test: Test B pre/postemergence pigweed; type: in vivo, Amaranthus retroflexus
Procedure, shortened: as §1

purple nutsedge = test: Test B pre/postemergence purple nutsedge; type: in vivo, Cyperus rotundus
Procedure, shortened: as §1

giant foxtail = test: Test B pre/postemergence giant foxtail; type: in vivo, Setaria faberii
Procedure, shortened: as §1

corn = test: Test B pre/postemergence corn; type: in vivo, Zea mays
Procedure, shortened: as §1

wild oat = test: Test B pre/postemergence wild oat; type: in vivo, Avena fatua
Procedure, shortened: as §1

[1] = Postemergence, Rate 125 g/ha, scale of 0 to 10 where 0 is no effect and 10 is complete control
[2] = Preemergence, Rate 62 g/ha, scale 0 to 10 (0 no effect, 10 complete control)
[3] = Preemergence, Rate 125 g/ha, 0 is no effect, 10 is complete control
[4] = Preemergence, Rate 250 g/ha, scale 0 to 10, 0 is no effect, 10 is complete control
[5] = Preemergence, Rate 500 g/ha, scale 0 to 10 (0 no effect, 10 complete control)
[6] = Rate 62 g/ha, Postemergence, scale of 0 to 10 where 0 is no effect and 10 is complete control
[7] = Rate 250 g/ha, Postemergence, scale 0 to 10, 0 is no effect, 10 is complete control
[8] = Rate 500 g/ha, Postemergence, scale 0 to 10

In the case of `CCCn1c(=O)on(C(=O)N(c2ccc(F)cc2F)C(C)C)c1=O` [Compound 130], the “Morningglory plant response rating” value (morningglory; [1]) is reported as 2, the “Morningglory plant response rating” value (morningglory; [2]) is reported as 0 and the “Morningglory plant response rating (0 to 10 scale)” value (morningglory; [3]) is reported as 0. For the same molecule, the “Morningglory plant response rating” value (morningglory; [4]) was 3, the “Morningglory plant response rating” value (morningglory; [5]) was 4 and the “Morningglory plant response rating” value (morningglory; [6]) was 2. For the same molecule, the “Plant response rating, Morningglory” value (morningglory; [7]) was 2, the “Morningglory plant response rating” value (morningglory; [8]) was 3 and the “Crabgrass plant response rating” value (crabgrass; [1]) was 9. For the same molecule, the “Crabgrass plant response rating” value (crabgrass; [2]) was 6, the “Crabgrass plant response rating (0 to 10 scale)” value (crabgrass; [3]) was 9 and the “Crabgrass plant response rating” value (crabgrass; [4]) was 9. The “Crabgrass plant response rating” value (crabgrass; [5]) was 10, the “Crabgrass plant response rating” value (crabgrass; [6]) was 5 and the “Plant response rating, Crabgrass” value (crabgrass; [7]) was 9. The “Crabgrass plant response rating” value (crabgrass; [8]) was 9, the “Bedstraw plant response rating” value (bedstraw; [2]) was 0 and the “Bedstraw plant response rating (0 to 10 scale)” value (bedstraw; [3]) was 0. For the same molecule, the “Bedstraw plant response rating” value (bedstraw; [4]) was 2, the “Bedstraw plant response rating” value (bedstraw; [5]) was 10 and the “Bedstraw plant response rating” value (bedstraw; [6]) was 0. The “Plant response rating, Bedstraw” value (bedstraw; [7]) was 6, the “Bedstraw plant response rating” value (bedstraw; Rate 500 g/ha, Postemergence, scale 0 to 10, 0 no effect, 10 complete control) was 8 and the “Wheat plant response rating” value (wheat; [1]) was 1. For the same molecule, the “Wheat plant response rating” value (wheat; [2]) was 2, the “Wheat plant response rating (0 to 10 scale)” value (wheat; [3]) was 3 and the “Wheat plant response rating” value (wheat; [5]) was 4. The “Wheat plant response rating” value (wheat; [6]) was 0, the “Plant response rating, Wheat” value (wheat; [7]) was 3 and the “Wheat plant response rating” value (wheat; [8]) was 8. For the same molecule, the “B. signalgrass plant response rating” value (surinam grass; [1]) was 2, the “B. signalgrass plant response rating” value (surinam grass; [2]) was 6 and the “B. signalgrass plant response rating (0 to 10 scale)” value (surinam grass; [3]) was 9. For the same molecule, the “B. signalgrass plant response rating” value (surinam grass; [4]) was 9, the “B. signalgrass plant response rating” value (surinam grass; [5]) was 9 and the “B. signalgrass plant response rating” value (surinam grass; [6]) was 1. For the same molecule, the “Plant response rating, B. signalgrass” value (surinam grass; [7]) was 7, the “B. signalgrass plant response rating” value (surinam grass; Rate 500 g/ha, Postemergence, scale of 0 to 10 where 0 is no effect and 10 is complete control) was 8 and the “Rape plant response rating” value (rape; [1]) was 2. The “Rape plant response rating” value (rape; [2]) was 4, the “Rape plant response rating (0 to 10 scale)” value (rape; [3]) was 9 and the “Rape plant response rating” value (rape; [4]) was 10. The “Rape plant response rating” value (rape; [5]) was 10, the “Rape plant response rating” value (rape; [6]) was 0 and the “Rape plant response rating” value (rape; [8]) was 2. For the same molecule, the “Sugarbeets plant response rating” value (sugar beet; [1]) was 0, the “Sugarbeets plant response rating” value (sugar beet; [2]) was 7 and the “Sugarbeets plant response rating (0 to 10 scale)” value (sugar beet; [3]) was 9. For the same molecule, the “Sugarbeets plant response rating” value (sugar beet; [4]) was 10, the “Sugarbeets plant response rating” value (sugar beet; [5]) was 10 and the “Sugarbeets plant response rating” value (sugar beet; [6]) was 0. For the same molecule, the “Plant response rating, Sugarbeets” value (sugar beet; [7]) was 2, the “Sugarbeets plant response rating” value (sugar beet; [8]) was 4 and the “Blackgrass plant response rating” value (blackgrass; [1]) was 5. The “Blackgrass plant response rating” value (blackgrass; [2]) was 5, the “Blackgrass plant response rating (0 to 10 scale)” value (blackgrass; [3]) was 9 and the “Blackgrass plant response rating” value (blackgrass; [4]) was 9. For the same molecule, the “Blackgrass plant response rating” value (blackgrass; [5]) was 10, the “Blackgrass plant response rating” value (blackgrass; [6]) was 3 and the “Plant response rating, Blackgrass” value (blackgrass; [7]) was 7. For the same molecule, the “Blackgrass plant response rating” value (blackgrass; [8]) was 8, the “Redroot pigweed plant response rating” value (pigweed; [1]) was 3 and the “Redroot pigweed plant response rating” value (pigweed; [2]) was 6. For the same molecule, the “Redroot pigweed plant response rating (0 to 10 scale)” value (pigweed; [3]) was 10, the “Redroot pigweed plant response rating” value (pigweed; [4]) was 10 and the “Redroot pigweed plant response rating” value (pigweed; [5]) was 10. The “Redroot pigweed plant response rating” value (pigweed; [6]) was 0, the “Plant response rating, Redroot pigweed” value (pigweed; [7]) was 3 and the “Redroot pigweed plant response rating” value (pigweed; [8]) was 6. For the same molecule, the “Nutsedge plant response rating” value (purple nutsedge; [1]) was 0, the “Nutsedge plant response rating” value (purple nutsedge; [2]) was 0 and the “Nutsedge plant response rating (0 to 10 scale)” value (purple nutsedge; [3]) was 0. The “Nutsedge plant response rating” value (purple nutsedge; [4]) was 0, the “Nutsedge plant response rating” value (purple nutsedge; [5]) was 3 and the “Nutsedge plant response rating” value (purple nutsedge; [6]) was 0. The “Plant response rating, Nutsedge” value (purple nutsedge; [7]) was 0, the “Nutsedge plant response rating” value (purple nutsedge; [8]) was 0 and the “Giant foxtail plant response rating” value (giant foxtail; [1]) was 9. The “Giant foxtail plant response rating” value (giant foxtail; [2]) was 7, the “Giant foxtail plant response rating (0 to 10 scale)” value (giant foxtail; [3]) was 9 and the “Giant foxtail plant response rating” value (giant foxtail; [4]) was 10. For the same molecule, the “Giant foxtail plant response rating” value (giant foxtail; [5]) was 10, the “Giant foxtail plant response rating” value (giant foxtail; [6]) was 8 and the “Plant response rating, Giant foxtail” value (giant foxtail; [7]) was 9. The “Giant foxtail plant response rating” value (giant foxtail; [8]) was 9, the “Corn plant response rating” value (corn; [1]) was 0 and the “Corn plant response rating” value (corn; [2]) was 3. The “Corn plant response rating (0 to 10 scale)” value (corn; [3]) was 3, the “Corn plant response rating” value (corn; [4]) was 6 and the “Corn plant response rating” value (corn; [5]) was 6. For the same molecule, the “Corn plant response rating” value (corn; [6]) was 0, the “Plant response rating, Corn” value (corn; [7]) was 2 and the “Corn plant response rating” value (corn; [8]) was 3. The “Wild oats plant response rating” value (wild oat; [1]) was 2, the “Wild oats plant response rating” value (wild oat; [2]) was 7 and the “Wild oats plant response rating (0 to 10 scale)” value (wild oat; [3]) was 8. The “Wild oats plant response rating” value (wild oat; [4]) was 10, the “Wild oats plant response rating” value (wild oat; [5]) was 10 and the “Wild oats plant response rating” value (wild oat; [6]) was 0. For the same molecule, the “Plant response rating, Wild oats” value (wild oat; [7]) was 5 and the “Wild oats plant response rating” value (wild oat; [8]) was 8.
